Data as given in ChEMBL document CHEMBL5380816, “Inclusion of Nitrofurantoin into the Realm of Cancer Chemotherapy via Biology-Oriented Synthesis and Drug Repurposing” (J Med Chem, 2023).
The source made the active and inactive calls. The calls are words filed in the database; no cut-off is given here.

What was measured:
[1] = Selectivity index, ratio of IC50 for human WI-38 cells to IC50 for human HeLa cells; format: toxicity; settings: WI-38 cells versus HeLa cells, read-out: Ratio IC50
[2] = Cytotoxicity in human WI-38 cells assessed as reduction in cell viability incubated for 72 hrs by MTT assay; format: toxicity, cell-based
[3] = Selectivity index, ratio of IC50 for human WI-38 cells to IC50 for human Caco-2 cells
[4] = Cytotoxicity in human WI-38 cells assessed as safe dose incubated for 72 hrs by MTT assay; format: toxicity, cell-based; settings: read-out: EC100
[5] = Selectivity index, ratio of IC50 for human WI-38 cells to IC50 for human MCF7 cells; format: toxicity; settings: WI-38 cells versus MCF7 cells, read-out: Ratio IC50
[6] = tested on: Caco-2; experiment: Anticancer activity against human Caco-2 cells incubated for 72 hrs by MTT assay; format: functional, cell-based; settings: Caco-2, 72 h
[7] = tested on: HeLa; experiment: Anticancer activity against human HeLa cells incubated for 72 hrs by MTT assay; format: functional, cell-based
[8] = tested on: MCF7; experiment: Anticancer activity against human MCF7 cells incubated for 72 hrs by MTT assay; format: functional, cell-based; settings: MCF7, 72 h
[9] = tested on: HepG2; experiment: Anticancer activity against human HepG2 cells incubated for 72 hrs by MTT assay; format: functional, cell-based; settings: HepG2, 72 h
[10] = Selectivity index, ratio of IC50 for human WI-38 cells to IC50 for human HepG2 cells; format: toxicity; settings: WI-38 cells versus HepG2 cells, read-out: Ratio IC50
[11] = tested on: HepG2; experiment: Potency index, ratio of 5-fluorouracil IC50 to test compound IC50 for antiproliferative activity against human HepG2 cells; format: functional
[12] = tested on: MCF7; experiment: Potency index, ratio of 5-fluorouracil IC50 to test compound IC50 for antiproliferative activity against human MCF7 cells; format: functional
[13] = tested on: MCF7; experiment: Induction of apoptosis in human MCF7 cells assessed as pro-oxidant effect by measuring free radical generation measured at 0.097 uM after 72 hrs; format: functional, cell-based
[14] = tested on: Caco-2; experiment: Induction of apoptosis in human Caco-2 cells assessed as pro-oxidant effect by measuring free radical generation measured at 0.097 uM after 72 hrs; format: functional, cell-based
[15] = tested on: dsDNA; experiment: Induction of damage in dsDNA (unknown origin) assessed as DNA disruption by measuring amplitude at 100 uM incubated for 2.5 hrs by EvaGreen based fluorescence plate reader analysis; format: nucleic-acid assay
[16] = tested on: dsDNA; experiment: Induction of damage in dsDNA (unknown origin) assessed as DNA disruption by measuring damage constant at 100 uM incubated for 2.5 hrs by EvaGreen based fluorescence plate reader analysis; format: nucleic-acid assay
[17] = tested on: dsDNA; experiment: Induction of damage in dsDNA (unknown origin) assessed as DNA disruption by measuring fluorescence intensity at 100 uM incubated for 2.5 hrs by EvaGreen based fluorescence plate reader analysis; format: nucleic-acid assay
[18] = target: Tumour suppressor p53/oncoprotein Mdm2 (Homo sapiens, UniProt P04637+Q00987); experiment: Inhibition of human recombinant MDM2/p53 interaction measured after 10 mins by ELISA method; format: protein assay
Chain of Tumour suppressor p53/oncoprotein Mdm2 (P04637 whole entry): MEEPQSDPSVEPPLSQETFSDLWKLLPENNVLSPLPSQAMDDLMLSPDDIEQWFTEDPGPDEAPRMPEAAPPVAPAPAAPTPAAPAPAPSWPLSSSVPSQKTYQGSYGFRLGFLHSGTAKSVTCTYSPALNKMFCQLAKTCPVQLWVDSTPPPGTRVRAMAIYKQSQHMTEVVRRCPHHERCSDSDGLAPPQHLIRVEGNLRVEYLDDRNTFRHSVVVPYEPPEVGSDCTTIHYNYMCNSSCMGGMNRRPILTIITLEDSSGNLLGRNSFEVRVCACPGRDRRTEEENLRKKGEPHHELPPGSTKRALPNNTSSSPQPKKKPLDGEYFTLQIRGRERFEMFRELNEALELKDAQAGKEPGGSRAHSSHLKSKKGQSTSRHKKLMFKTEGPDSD
Chain of Tumour suppressor p53/oncoprotein Mdm2 (Q00987 whole entry): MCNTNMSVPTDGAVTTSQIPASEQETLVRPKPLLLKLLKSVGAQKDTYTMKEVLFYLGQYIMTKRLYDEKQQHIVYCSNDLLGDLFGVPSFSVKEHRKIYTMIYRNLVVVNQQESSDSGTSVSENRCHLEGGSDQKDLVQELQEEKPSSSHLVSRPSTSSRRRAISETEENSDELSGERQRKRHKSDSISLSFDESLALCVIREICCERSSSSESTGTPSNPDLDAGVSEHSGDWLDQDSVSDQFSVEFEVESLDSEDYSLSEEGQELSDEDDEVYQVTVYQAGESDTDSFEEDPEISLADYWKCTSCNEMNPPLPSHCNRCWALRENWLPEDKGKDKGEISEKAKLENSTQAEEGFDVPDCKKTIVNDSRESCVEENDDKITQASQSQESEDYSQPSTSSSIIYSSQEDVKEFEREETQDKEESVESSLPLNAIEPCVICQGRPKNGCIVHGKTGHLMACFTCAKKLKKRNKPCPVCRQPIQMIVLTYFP

[19] = tested on: HeLa; experiment: Induction of apoptosis in human HeLa cells assessed as ratio of gene expression activity in pro apoptotic Bax to anti apoptotic Bcl-2; format: functional
[20] = tested on: Caco-2; experiment: Induction of apoptosis in human Caco-2 cells assessed as ratio of gene expression activity in pro apoptotic Bax to anti apoptotic Bcl-2; format: functional
[21] = tested on: HeLa; experiment: cells; settings: Homo sapiens, 72 h, read-out: Activity
Description: Induction of apoptosis in human HeLa cells assessed as viable cells incubated at 0.027 uM for 72 hrs by annexin V-FITC based propidium iodide dual staining assay (Rvb = 97.23%)

[22] = tested on: Caco-2; experiment: cells; settings: Homo sapiens, Caco-2, 72 h, read-out: Activity
[23] = tested on: HepG2; experiment: Induction of apoptosis in human HepG2 cells assessed as ratio of gene expression activity in pro apoptotic Bax to anti apoptotic Bcl-2; format: functional
[24] = tested on: MCF7; experiment: cells; settings: Homo sapiens, MCF7, 72 h, read-out: Activity
Description: Induction of apoptosis in human MCF7 cells assessed as viable cells incubated at 0.027 uM for 72 hrs by annexin V-FITC based propidium iodide dual staining assay (Rvb = 99.9%)

[25] = tested on: MCF7; experiment: Induction of apoptosis in human MCF7 cells assessed as ratio of gene expression activity in pro apoptotic Bax to anti apoptotic Bcl-2; format: functional
[26] = tested on: HepG2; experiment: cells; settings: Homo sapiens, HepG2, 72 h, read-out: Activity
Description: Induction of apoptosis in human HepG2 cells assessed as viable cells incubated at 0.027 uM for 72 hrs by annexin V-FITC based propidium iodide dual staining assay (Rvb = 97.27%)

Row | Ratio IC50 [3] | IC50 [6] [nM] | IC50 [7] [nM] | IC50 [8] [nM] | IC50 [9] [nM] | Structure (SMILES) | selectivity ratio [1] | IC50 at 72 h [2] [nM] | MNTC at 72 h [4] [nM] | selectivity ratio [5] | selectivity ratio [10] | Ratio IC50 [11] | Ratio IC50 [12] | other results
1 | 1.01 | 87 | 108 | 120 | 71 | O=C1CN(/N=C/c2ccc([N+](=O)[O-])o2)C(=O)N1Cc1cn(-c2ccc(S(=O)(=O)Nc3nccs3)cc2)nn1 | 0.813 | 87.9 | 32 | 0.727 | 1.23 | 1.2 | 1.2 | 
2 | 3.05 | 78 | 97 | 105 | 289 | O=C(CN1C(=O)CN(/N=C/c2ccc([N+](=O)[O-])o2)C1=O)c1ccc(Br)cc1 | 2.47 | 240 | 66 | 2.31 | 0.83 |  | 1.2 | 
3 | 1.95 | 77 | 78 | 85 | 400 | O=C1CN(/N=C/c2ccc([N+](=O)[O-])o2)C(=O)N1Cc1cn(-c2ccc(Cl)cc2)nn1 | 1.92 | 150 | 29 | 1.77 | 0.376 |  | 1.2 | Activity [13]: Active; Activity [14]: Active
4 | 2.05 | 113 | 59 | 145 | 283 | Cc1ccc(-n2cc(CN3C(=O)CN(/N=C/c4ccc([N+](=O)[O-])o4)C3=O)nn2)cc1 | 3.92 | 232 | 27 | 1.6 | 0.824 |  | 1.2 | 
5 |  |  | 183 | 80 | 67 | O=C1CN(/N=C/c2ccc([N+](=O)[O-])o2)C(=O)N1Cc1ccc(Br)cc1 | 0.65 | 119 | 32 | 1.5 | 1.78 | 1.2 | 1.2 | 
6 | 1.53 | 144 | 84 | 128 | 104 | O=C1CN(/N=C/c2ccc([N+](=O)[O-])o2)C(=O)N1Cc1cn(-c2ccccc2)nn1 | 2.61 | 220 | 36 | 1.74 | 2.11 | 1.2 | 1.2 | 
7 | 1.28 | 140 | 115 | 255 | 287 | Cc1ccc(C(=O)CN2C(=O)CN(/N=C/c3ccc([N+](=O)[O-])o3)C2=O)cc1 | 1.58 | 180 | 33 | 0.706 | 0.628 |  |  | 
8 | 1.37 | 105 | 87 | 198 | 149 | COc1ccc(C(=O)CN2C(=O)CN(/N=C/c3ccc([N+](=O)[O-])o3)C2=O)cc1 | 1.61 | 140 | 26 | 0.706 | 0.948 | 1.2 | 1.2 | 
9 | 1.32 | 140 | 113 | 117 | 63 | O=C1CN(/N=C/c2ccc([N+](=O)[O-])o2)C(=O)N1Cc1cn(-c2ccc([N+](=O)[O-])cc2)nn1 | 1.62 | 183 | 26 | 1.56 | 2.92 | 1.2 | 1.2 | 
10 |  |  |  |  |  | COc1cccc2c1C(=O)c1c(O)c3c(c(O)c1C2=O)C[C@@](O)(C(=O)CO)C[C@@H]3O[C@H]1C[C@H](N)[C@H](O)[C@H](C)O1 |  |  |  |  |  |  |  | Activity [15]: 218; Activity [16]: 15.2; Activity [17]: 65.4
11 | 3.08 | 73 |  | 76 | 277 | O=C(CN1C(=O)CN(/N=C/c2ccc([N+](=O)[O-])o2)C1=O)c1ccccc1 |  | 226 | 19 | 2.98 | 0.824 |  | 1.2 | 
12 | 1.41 | 115 | 166 |  |  | O=C1CN(/N=C/c2ccc([N+](=O)[O-])o2)C(=O)N1 [NITROFURANTOIN] | 0.98 | 162 | 27 |  |  |  |  | IC50 [18]: 1580 nM; Ratio [19]: 1.42; Ratio [20]: 1.385; viability at 0.027 µM [21]: 84.8%; viability at 0.027 µM [22]: 85%; Ratio [23]: 1.002; viability at 0.027 µM [24]: 98.8%; Ratio [25]: 0.958; viability at 0.027 µM [26]: 98.7%
13 | 1.19 | 182 | 129 | 113 | 120 | O=C1CN(/N=C/c2ccc([N+](=O)[O-])o2)C(=O)N1Cc1ccccc1 | 1.68 | 216 | 33 | 1.92 | 1.82 | 1.2 | 1.2 | 

Row | Structure (SMILES) | Ratio IC50 [3] | IC50 [6] [nM] | IC50 [7] [nM] | IC50 [8] [nM] | IC50 [9] [nM] | selectivity ratio [1] | IC50 at 72 h [2] [nM] | MNTC at 72 h [4] [nM] | selectivity ratio [5] | selectivity ratio [10] | Ratio IC50 [11] | Ratio IC50 [12] | other results
14 | O=C1CN(/N=C/c2ccc([N+](=O)[O-])o2)C(=O)N1Cc1ccc([N+](=O)[O-])cc1 | 1.75 | 103 | 121 | 103 | 127 | 1.51 | 181 | 9 | 1.77 | 1.42 | 1.2 | 1.2 | 
